Measured values taken from BindingDB's records for doi:10.1016/j.bmcl.2011.01.024 (Amira Pharmaceuticals, 2011).
pIC50: −log10 of the molar value.

Experiment: Inhibition of human prostanoid DP2 receptor in human whole bood assessed as eosinophil shape change preincubated for 15 mins before addition of PGD2 measured after 5 mins by FACS analysis

Structure (SMILES)	pIC50
COC(=O)N(CCc1ccccc1)Cc1cc(C(F)(F)F)ccc1-c1cc(CC(=O)O)ccc1OC	7.47
CCN(Cc1cc(C(F)(F)F)ccc1-c1cc(CC(=O)O)ccc1OC)C(=O)OCc1ccc(Cl)cc1	8.22
CCN(Cc1cc(C(F)(F)F)ccc1-c1cc(CC(=O)O)ccc1OC)C(=O)OCc1ccccc1Cl	8.15
CCN(Cc1cc(C(F)(F)F)ccc1-c1cc(CC(=O)O)ccc1OC)C(=O)OCc1cccc(Cl)c1	8.15
CCN(Cc1cc(C(F)(F)F)ccc1-c1cc(CC(=O)O)ccc1OC)C(=O)OC	8.10
COc1ccc(CC(=O)O)cc1-c1ccc(C(F)(F)F)cc1CN(C)C(=O)OCc1ccccc1	8.05
COc1ccc(CC(=O)O)cc1-c1ccc(C(F)(F)F)cc1CNC(=O)OCc1ccccc1	6.15
COC(=O)N(Cc1ccccc1)Cc1cc(C(F)(F)F)ccc1-c1cc(CC(=O)O)ccc1OC	7.66
CCN(Cc1cc(C(F)(F)F)ccc1-c1cc(CC(=O)O)ccc1OC)C(=O)OCc1cc(F)cc(F)c1	8.30
